This is an account of results in ChEMBL document CHEMBL1201862, “PubChem BioAssay data set” (2004).

Test systems include A549; M19-MEL; OVCAR-8; SW-620; HOP-62; DMS-273; ACHN; LXFL 529; UO-31; TK-10; M14; SF-268; HCT-15; DMS-114; DLD-1; MCF7; SR; MDA-MB-435; MDA-N; Hs-578T.
Experiment in all cases: inhibition of tumour cell growth, NCI panel, 48 h

The structures appear in SMILES notation.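 Assay format: 96-well plates, 48-hour exposure. GI50 = concentration required for 50% inhibition of growth.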 Activity calls are given as the source filed them. Rule as the data show it: active = GI50 up to about 1.1 µM and inactive = higher. Where only a bound is given, the exact number is not on record here.

With `c1ccc(-n2cnnc2-c2nsc3ccccc23)cc1`, the GI50 in the test with A549, in the test with M19-MEL, in the test with OVCAR-8, in the test with SW-620, in the test on HOP-62 and in the test on DMS-273 was > 100 µM (inactive) in each case. Also, the GI50 in the test on ACHN is 67.3 µM (inactive); in the test with LXFL 529, > 100 µM (inactive); in the test with UO-31, > 100 µM (inactive); in the test with TK-10, > 100 µM (inactive); with M14, > 100 µM (inactive); with SF-268, > 100 µM (inactive). The same molecule had a GI50 with HCT-15 of 74 µM.

In the case of `CCCN1C(=O)/C(=C(/O)C(=O)OCC)C(c2ccc(OC)c(OC)c2)C1=O` (stereo not given), the GI50 in the test on A549, in the test with M19-MEL, with OVCAR-8, in the test with SW-620, with HOP-62 and in the test with DMS-273 was > 100 µM (inactive) each time. Also, the GI50 was > 100 µM (inactive) in the test on UO-31; > 100 µM (inactive) in the test on SF-268; > 100 µM (inactive) in the test with DMS-114; > 100 µM (inactive) in the test on DLD-1; greater than 100 µM in the test on HCT-15; > 100 µM (inactive) with MCF7.

In the case of `COc1ccccc1OCC(COC(=O)Nc1ccccc1)OC(=O)Nc1ccccc1` (stereo not given), the GI50 with A549 was 50.6 µM (inactive); with OVCAR-8, 37.4 µM (inactive); in the test on SW-620 it was > 100 µM (inactive); with HOP-62, 56.6 µM (inactive); in the test with DMS-273 it was 54.6 µM (inactive); in the test on ACHN, > 100 µM (inactive). For the same molecule, the GI50 in the test on LXFL 529 was 27.5 µM (inactive); in the test on UO-31 it was 49.3 µM (inactive); in the test with TK-10 it was > 100 µM (inactive); in the test with M14, 91.8 µM (inactive); in the test with SF-268, 57.5 µM (inactive); with DMS-114, 47.1 µM (inactive). The GI50 in the test with DLD-1 was > 100 µM (inactive); in the test with HCT-15 it was greater than 100 µM.

With `COc1ccc(/C=c2\sc3n(c2=O)CCN=3)cc1`, the GI50 in the test with A549, in the test on M19-MEL, in the test with OVCAR-8, with SR, with SW-620 and with HOP-62 was > 100 µM (inactive) throughout. Also, the GI50 with ACHN, in the test with LXFL 529, in the test on UO-31, with TK-10, in the test with M14 and in the test with DLD-1 was > 100 µM (inactive) throughout. For the same molecule, in the test on HCT-15, the GI50 is greater than 100 µM.

On to `CCOC(=O)c1ccc(N(CCOS(C)(=O)=O)CCOS(C)(=O)=O)cc1`, for which the GI50 with A549 is 53 µM (inactive); in the test with OVCAR-8 it was 47 µM (inactive); in the test with SW-620 it was 32 µM (inactive); in the test with MDA-MB-435, 52.2 µM (inactive); with ACHN, 26 µM (inactive); in the test on UO-31 it was 20.5 µM (inactive). In addition, the GI50 in the test on MDA-N was 45.6 µM (inactive); in the test on TK-10, 83.4 µM (inactive); in the test with Hs-578T it was 29.3 µM (inactive); in the test with M14, 53.1 µM (inactive); with SF-268 it was 26.1 µM (inactive); in the test on HCT-15, 40.9 µM. For the same molecule, in the test on MCF7, the GI50 is 47.3 µM (inactive).

Regarding `O=c1ccn([C@@H]2C=C(CO)[C@@H](O)[C@H]2O)c(=O)[nH]1`, the GI50 in the test on A549, in the test on OVCAR-8, in the test on SW-620, in the test with HOP-62, in the test with DMS-273 and in the test with UO-31 was > 625 µM (inactive) throughout. In addition, the GI50 in the test with SF-268 is > 625 µM (inactive); with DLD-1 it was > 625 µM (inactive); in the test with HCT-15 it was greater than 625 µM; in the test with MCF7, > 625 µM (inactive).

As to `O=c1cnn(C/C=C/CBr)c(=O)[nH]1`, the GI50 with A549 was 16.8 µM (inactive); in the test on OVCAR-8 it was 23.1 µM (inactive); in the test with SR, 17.7 µM (inactive); in the test with SW-620, 13.6 µM (inactive); in the test with HOP-62 it was 17.9 µM (inactive); in the test with MDA-MB-435 it was 14.9 µM (inactive). Also, the GI50 in the test on ACHN is 16.7 µM (inactive); in the test with UO-31, 14.1 µM (inactive); in the test with MDA-N, 14.7 µM (inactive); in the test on Hs-578T, 33 µM (inactive); with M14, 15.3 µM (inactive); with SF-268, 17.1 µM (inactive). Besides, the results for the GI50 in the test on HCT-15 and in the test with MCF7 were 18.2 µM and 12.9 µM (inactive), respectively.

Regarding `CC1=NCCc2cc3[nH]c4ccccc4c3cc21`, the GI50 in the test with A549 is 33.2 µM (inactive); with M19-MEL, 14.9 µM (inactive); in the test with OVCAR-8, 24.6 µM (inactive); in the test on SW-620, 15.7 µM (inactive); in the test on HOP-62, 49.3 µM (inactive); with DMS-273, 13.6 µM (inactive). Also, the GI50 in the test with UO-31 is 17.6 µM (inactive); in the test with SF-268, 22.1 µM (inactive); in the test on DMS-114, 11.6 µM (inactive); in the test on DLD-1, 19.2 µM (inactive); in the test on HCT-15 it was 21.7 µM; with MCF7, 15.1 µM (inactive).

In the case of `C[C@H]1O[C@@H](O[C@H]2[C@@H](O)C[C@H](O[C@H]3[C@@H](O)C[C@H](O[C@H]4CC[C@@]5(C)[C@H](CC[C@@H]6[C@@H]5CC[C@]5(C)[C@@H](C7=CC(=O)OC7)CC[C@]65O)C4)O[C@@H]3C)O[C@@H]2C)C[C@H](O)[C@@H]1O` [DIGITOXIN], the GI50 is < 0.0157 µM (active) in the test with A549; 0.0338 µM (active) in the test on SR; 0.0296 µM (active) with SW-620; < 0.0199 µM (active) in the test with HOP-62; 0.0485 µM (active) with MDA-MB-435; < 0.015 µM (active) in the test on ACHN. Also, the GI50 with UO-31 is 0.0414 µM (active); with MDA-N, 0.0256 µM (active); with TK-10, 0.0252 µM (active); in the test on Hs-578T, < 0.0378 µM (active); in the test with SF-268 it was < 0.0241 µM (active); in the test on HCT-15 it was 0.0305 µM. Besides, the GI50 in the test on MCF7 is 0.0413 µM (active).

For `COc1cccc2c1C(=O)c1c(O)c3c(c(O)c1C2=O)C[C@@](O)(C(=O)CN1CCOCC1)C[C@@H]3OC1CC(N)C(O)C(C)O1` (stereo not given in full), the GI50 in the test with A549 is 2.43 µM (inactive); in the test on M19-MEL it was 3.39 µM (inactive); with OVCAR-8, 4.47 µM (inactive); with SW-620, 2.34 µM (inactive); in the test on HOP-62 it was 2.48 µM (inactive); with DMS-273, 2.23 µM (inactive). Also, the GI50 was 19 µM (inactive) in the test with UO-31; 4.47 µM (inactive) in the test on SF-268; 3.52 µM (inactive) in the test on DMS-114; 7.71 µM (inactive) in the test with DLD-1; 12.4 µM with HCT-15; 0.938 µM (active) with MCF7.

Consider `C=C1C(=O)[C@@]23CC[C@H]4[C@@](C)(CCC[C@@]4(C)C(=O)OC)[C@@H]2CC[C@]1(O)C3`, for which the GI50 with A549 is 3.1 µM (inactive); in the test on M19-MEL, 1.56 µM (inactive); in the test with OVCAR-8 it was 1.47 µM (inactive); in the test with SW-620, 0.624 µM (active); in the test with HOP-62, 20.2 µM (inactive); with DMS-273, 1.67 µM (inactive). The GI50 in the test with UO-31 was 2.32 µM (inactive); in the test with SF-268, 1.9 µM (inactive); with DLD-1 it was 0.32 µM (active); in the test on HCT-15 it was 1.26 µM; in the test with MCF7 it was 2.12 µM (inactive).

For `O=C1C2=C(C3=NCCc4c[nH]c1c43)c1c(cc(Br)c(O)c1Br)CCN2`, the GI50 is 18.6 µM (inactive) in the test with A549; 2.79 µM (inactive) in the test on M19-MEL; 8.53 µM (inactive) in the test with OVCAR-8; 15.2 µM (inactive) in the test with SW-620; 25.3 µM (inactive) in the test on HOP-62; 12.6 µM (inactive) with DMS-273. For the same molecule, the GI50 in the test with UO-31 was 18.2 µM (inactive); in the test on SF-268, 9.25 µM (inactive); in the test on DMS-114, 2.96 µM (inactive); with DLD-1, 8.2 µM (inactive); with HCT-15, 11.5 µM; in the test on MCF7, 7.69 µM (inactive).

Consider `CCOP(=O)(COCCn1ncc(=O)[nH]c1=O)OCC`, for which the GI50 with A549, in the test on OVCAR-8, in the test on SR, in the test on SW-620, in the test on HOP-62 and with MDA-MB-435 was > 100 µM (inactive) each time. Further, the GI50 with ACHN, in the test on UO-31, in the test with MDA-N, in the test with TK-10, in the test on Hs-578T and with M14 was > 100 µM (inactive) each time. The figures for the GI50 in the test with SF-268, in the test on HCT-15 and in the test with MCF7 were > 100 µM (inactive), greater than 100 µM and > 100 µM (inactive), respectively.

Consider `NCCCN(CCCN)CCN(CCN(CCCN)CCCN)CCN(CCCN)CCCN`, for which the GI50 in the test with A549 was > 100 µM (inactive); in the test with OVCAR-8, 44.6 µM (inactive); in the test on SR, > 100 µM (inactive); in the test with SW-620, > 100 µM (inactive); in the test on HOP-62 it was > 100 µM (inactive); with MDA-MB-435, > 100 µM (inactive). In addition, the GI50 is > 100 µM (inactive) in the test on ACHN; > 100 µM (inactive) with UO-31; > 100 µM (inactive) in the test with MDA-N; > 100 µM (inactive) with TK-10; 23.5 µM (inactive) in the test with Hs-578T; > 100 µM (inactive) in the test with M14. The GI50 with HCT-15 was greater than 100 µM; in the test on MCF7, > 100 µM (inactive).

In the case of `CCOC(=O)CN(CC)C(=O)NC12CC3CC(CC(C3)C1)C2`, the GI50 with A549 was 222 µM (inactive); in the test on M19-MEL, 184 µM (inactive); in the test on OVCAR-8 it was 292 µM (inactive); in the test with SW-620, 219 µM (inactive); in the test with HOP-62, 188 µM (inactive); with DMS-273, 233 µM (inactive). Further, the GI50 with UO-31 is 139 µM (inactive); with SF-268 it was 281 µM (inactive); in the test on DMS-114, 134 µM (inactive); in the test with DLD-1, 65.8 µM (inactive); with HCT-15, 220 µM; in the test with MCF7 it was 177 µM (inactive).
